In US12146874B2, “Microtentacle imaging in patient tumor samples” (University of Maryland, Baltimore, priority 2014, dated 2024):

Legend:
patient-derived cells = assay: McTN and stem cell responses of patient-derived cells to drugs (Example 4); format: cell-based, human; details: concentration listed in Table 2, 30 minutes, vs vehicle 0.1% DMSO
Procedure: Patient-derived cells are treated with either vehicle (0.1% DMSO) or each of the drugs in Table 2 at the indicated concentration for 30 minutes and then analyzed for McTN incidence.

[1] = system: nonmetastatic SkBr3 cells; assay: McTN scoring in detached SkBr3 cells, confocal microscopy for tubulin localization; format: cell-based, Human; details: Jas 500 nM, Taxol 1.2 μM, McTNs scored blindly, 3 expts
Source text: FIG. 4. Targeting cell division can increase McTNs. […] (Bars=mean+S.D from 3 expts. with McTNs scored blindly).
Genetic alterations and chemotherapies that stabilize tubulin can increase McTNs. Actin-disrupting drugs, such as jasplakinolide (Jas) are currently being developed as therapies to reduce tumor cell division and migration (Takeuchi H, Ara G, Sausville E A, Teicher B (1998). Jasplakinolide: interaction with radiation and hyperthermia in human prostate carcinoma and Lewis lung carcinoma. Cancer chemotherapy and pharmacology 42: 491-496). […] Dissemination and growth of cancer cells in metastatic sites. […] We have published that genetic alterations which promote McTNs (FIG. 2B) increase CTC lung retention in living mice (Balzer E M, Whipple R A, Thompson K, Boggs A E, Slovic J, Cho E H et al (2010). c-Src differentially regulates the functions of microtentacles and invadopodia. Oncogene 29: 6402-6408; Matrone M A, Whipple R A, Thompson K, Cho E H, Vitolo M I, Balzer E M et al (2010). Metastatic breast tumors express increased tau, which promotes microtentacle formation and the reattachment of detached breast tumor cells. Oncogene 29: 3217-3227).

[2] = system: fresh patient tumor cells and tumorgrafts; assay: McTN drug response of fresh patient samples and tumorgrafts in the microfluidic device (Aim 3b); details: concentration listed in Table 4, 60 minutes, media exchange in microfluidic channels
Procedure: An automated microscope stage will collect images from each channel every 5 minutes across the one hour drug treatment.
Strategy and Analysis: The device prioritized from subaim 2a will be used to analyze fresh patient samples as well as the resulting tumorgrafts from 40 patients during the three years of the project. McTN images collected from each cell sample will be analyzed with a custom MatLab algorithm developed for this assay that can automatically identify McTNs but also score metrics that were previously not possible to measure, such as the average number of McTNs per cell (FIG. 12). […] Drugs will be added by media exchange across the six microfluidic channels at the concentrations listed in Table 4 for 60 minutes, which each affect McTNs in 1 hr.

MDA-436 cells = assay: Automated McTN analysis by confocal microscopy; format: cell-based; details: at least 10 random cells
Source text: FIG. 24. Automated McTN analysis. […] A gradient vector flow snake algorithm was used to define the cell edges and a local curvature maxima effectively identified McTN ends (yellow diamonds). […] This automated cell shape analysis will also enable calculations of average McTN length, curvature, etc. that will yield more multi-dimensional data for McTN studies.

Structure (SMILES)	Predicted stemness & McTN effect (patient-derived cells)	Predicted stemness & McTN effect [2]	other results
CC(=O)O[C@@]12CO[C@@H]1C[C@H](O)[C@@]1(C)C(=O)[C@H](O)C3=C(C)[C@@H](OC(=O)[C@H](O)[C@@H](NC(=O)OC(C)(C)C)c4ccccc4)C[C@@](O)([C@@H](OC(=O)c4ccccc4)[C@H]21)C3(C)C [Docetaxel]	Increase	–	–
C=C1C(=O)O[C@@H]2/C=C(\C)CC/C=C(\C)CC[C@@H]12 [Costunolide]	Decrease	–	–
C/C1=C\[C@H](C)C[C@H](C)OC(=O)C[C@H](c2ccc(O)cc2)NC(=O)[C@@H](Cc2c(Br)[nH]c3ccccc23)N(C)C(=O)[C@H](C)NC(=O)[C@@H](C)C1 [Jazplakinolide, Jasplakinolide]	Decrease	–	levels of McTNs [1]: strongly promote McTNs; levels of McTNs ([1]; listed as Jas): increases levels of McTNs dramatically
C[C@@H](N)[C@H]1CC[C@H](C(=O)Nc2ccncc2)CC1 [Y-27632]	Increase	–	–
COc1cc2c(c(OC)c1OC)-c1ccc(OC)c(=O)cc1[C@@H](NC(C)=O)CC2 [Colchicine]	Decrease	Decrease	average number of McTNs per cell (MDA-436 cells; colchicine 50 μM vs vehicle 0.1% DMSO): significantly reduces the average number of McTNs per cell
O=S(=O)(c1cccc2c(I)cccc12)N1CCCNCC1 [ML-7]	Decrease	–	–
CN(C)S(=O)(=O)c1ccc2c(c1)/C(=C/c1cc3c([nH]1)CCCC3)C(=O)N2 [SU6656]	Increase	–	–
CC(=O)O[C@H]1C(=O)[C@@]2(C)[C@H]([C@H](OC(=O)c3ccccc3)[C@]3(O)C[C@H](OC(=O)[C@H](O)[C@@H](NC(=O)c4ccccc4)c4ccccc4)C(C)=C1C3(C)C)[C@]1(OC(C)=O)CO[C@@H]1C[C@@H]2O [Paclitaxel]	Increase	Increase	levels of McTNs [1]: strongly promote McTNs; levels of McTNs ([1]; listed as Paclitaxel-Taxol): increases levels of McTNs dramatically; average number of McTNs per cell (MDA-436 cells; paclitaxel 1 μM vs vehicle 0.1% DMSO): increases McTNs, but this does not reach significance
C/C(=C\c1csc(C)n1)[C@@H]1C[C@@H]2O[C@]2(C)CCC[C@H](C)[C@H](O)[C@@H](C)C(=O)C(C)(C)[C@@H](O)CC(=O)N1 [Ixabepilone]	Increase	Increase	–
COc1cc(/C=C/C(=O)CC(=O)/C=C/c2ccc(O)c(OC)c2)ccc1O [Curcumin]	–	Decrease	–
CC[C@]1(O)C[C@@H]2CN(CCc3c([nH]c4ccccc34)[C@@](C(=O)OC)(c3cc4c(cc3OC)N(C)[C@H]3[C@@](O)(C(=O)OC)[C@H](OC(C)=O)[C@]5(CC)C=CCN6CC[C@]43[C@@H]65)C2)C1 [Vinblastine]	Decrease	Decrease	–
O=S(=O)(c1cccc2cnccc12)N1CCCNCC1 [Fasudil]	Increase	–	–
